Data from US8334315B2, “Substituted aromatic carboxamide and urea derivatives as vanilloid receptor ligands” (Gruenenthal GmbH, priority 2009, dated 2012).

Legend:
[1] = biological target: T1, rat-species vanilloid receptor 1 (VR1/TRPV1) (Rattus norvegicus, UniProt O35433); assay: Functional testing on the vanilloid receptor 1, FLIPR Ca2+ influx in rat DRG cells, capsaicin; assay type: cell-based; parameters: key to Ki (rat) [nM] Cap: agonist / partial agonist / no effect: AG=agonist; pAG=partial agonist; NE=no effect; details: for Ki: capsaicin (Cap), includes values given in brackets after pAG
T1 construct: endogenous in cells; host or cells: primary cells dissociated from rat dorsal root ganglia (DRG), cultured 2-3 days with NGF
Description: I. Functional Testing Carried Out on the Vanilloid Receptor 1 (VRI/TRPV1 Receptor)
(§1) The agonistic or antagonistic effect of the substances to be tested on the rat-species vanilloid receptor 1 (VR1/TRPV1) can be determined using the following assay. In this assay, the influx of Ca^2+ through the receptor channel is quantified with the aid of a Ca^2+-sensitive dye (type Fluo-4, Molecular Probes Europe BV, Leiden, the Netherlands) in a fluorescent imaging plate reader (FLIPR, Molecular Devices, Sunnyvale, USA).
Complete medium: 50 ml HAMS F12 nutrient mixture (Gibco Invitrogen GmbH, Karlsruhe, Germany) with
10% by volume of FCS (foetal calf serum, Gibco Invitrogen GmbH, Karlsruhe, Germany, heat-inactivated);
2 mM L-glutamine (Sigma, Munich, Germany);
1% by weight of AA solution (antibiotic/antimyotic solution, PAA, Pasching, Austria) and 25 ng/ml NGF medium (2.5 S, Gibco Invitrogen GmbH, Karlsruhe, Germany)
Cell culture plate: Poly-D-lysine-coated, black 96-well plates having a clear base (96-well black/clear plate, BD Biosciences, Heidelberg, Germany) are additionally coated with laminin (Gibco Invitrogen GmbH, Karlsruhe, Germany), the laminin being diluted with PBS (Ca—Mg-free PBS, Gibco Invitrogen GmbH, Karlsruhe, Germany) to a concentration of 100 μg/ml. Aliquots having a laminin concentration of 100 μg/ml are removed and stored at −20° C. The aliquots are diluted with PBS in a ratio of 1:10 to 10 μg/ml of laminin and respectively 50 μL of the solution are pipetted into a recess in the cell culture plate. The cell culture plates are incubated for at least two hours at 37° C., the excess solution is removed by suction and the recesses are each washed twice with PBS. The coated cell culture plates are stored with excess PBS which is not removed until just before the feeding of the cells.
Preparation of the Cells:
The vertebral column is removed from decapitated rats and placed immediately into cold HBSS buffer (Hank's buffered saline solution, Gibco Invitrogen GmbH, Karlsruhe, Germany), i.e. buffer located in an ice bath, mixed with 1% by volume (per cent by volume) of an AA solution (antibiotic/antimyotic solution, PAA, Pasching, Austria). The vertebral column is cut longitudinally and removed together with fasciae from the vertebral canal. Subsequently, the dorsal root ganglia (DRG) are removed and again stored in cold HBSS buffer mixed with 1% by volume of an AA solution. The DRG, from which all blood remnants and spinal nerves have been removed, are transferred in each case to 500 μL of cold type 2 collagenase (PAA, Pasching, Austria) and incubated for 35 minutes at 37° C. After the addition of 2.5% by volume of trypsin (PAA, Pasching, Austria), incubation is continued for 10 minutes at 37° C. After complete incubation, the enzyme solution is carefully pipetted off and 500 μL of complete medium are added to each of the remaining DRG. The DRG are respectively suspended several times, drawn through cannulae No. 1, No. 12 and No. 16 using a syringe and transferred to a 50 ml Falcon tube which is filled up to 15 ml with complete medium. The contents of each Falcon tube are respectively filtered through a 70 μm Falcon filter element and centrifuged for 10 minutes at 1,200 rpm and RT. The resulting pellet is respectively taken up in 250 μL of complete medium and the cell count is determined.
The number of cells in the suspension is set to 3×10^5 per ml and 150 μL of this suspension are in each case introduced into a recess in the cell culture plates coated as described hereinbefore. In the incubator the plates are left for two to three days at 37° C., 5% by volume of CO2 and 95% relative humidity. […]

hVR1 [2] = biological target: T2, hVR1 (Homo sapiens, UniProt Q8NER1); assay: Functional test on VR1, FLIPR Ca2+ influx in transfected CHO K1 cells, capsaicin; assay type: cell-based, human being; parameters: key to Ki (human being) [nM] Cap: agonist / partial agonist / no effect: AG=agonist; pAG=partial agonist; NE=no effect; details: for Ki: capsaicin (Cap), includes values given in brackets after pAG, read-out: Ki (human being) [nM] Cap
T2 construct: expressed in transfected cells; host or cells: CHO K1 cells (ECACC), stably transfected

hVR1 [3] = biological target: T2, hVR1; assay: Functional test on human VR1, 45° C. stimulus; assay type: cell-based, human being; parameters: key to IC50 (human being), 45° C.: agonist / partial agonist / no effect: AG=agonist; pAG=partial agonist; NE=no effect; details: for IC50: read-out: IC50 (human being) [nM], 45° C.
hVR1 [4] = biological target: T2, hVR1; assay: Functional test on hVR1 after pH stimulus; assay type: cell-based, human being; parameters: key to IC50 (human being) hVR1, pH: agonist / partial agonist / no effect: AG=agonist; pAG=partial agonist; NE=no effect; details: for inhibition at 10 µM: read-out: IC50 (human being) hVR1, pH: inhibition (as a percentage); for IC50: includes value printed in brackets after pAG, read-out: IC50 (human being) hVR1 [nM], pH
hVR1 [5] = biological target: T2, hVR1; assay: Functional test on human VR1, NADA (N-arachidonoyl dopamine) stimulus; assay type: cell-based, human being; details: includes values given in brackets after pAG, read-out: Ki (human being) [nM] NADA
Description: II. Functional Tests Carried Out on the Vanilloid Receptor (VR1)
as §1, with “the” for “the rat-species”, “(VR1)” for “(VR1/TRPV1)”, “can also” for “can”, “the” for “the receptor”
Chinese hamster ovary cells (CHO K1 cells, European Collection of Cell Cultures (ECACC) United Kingdom) are stably transfected with the VR1 gene. For functional testing, these cells are plated out on poly-D-lysine-coated black 96-well plates having a clear base (BD Biosciences, Heidelberg, Germany) at a density of 25,000 cells/well. The cells are incubated overnight at 37° C. and 5% CO2 in a culture medium (Ham's F12 nutrient mixture, 10% by volume of FCS (foetal calf serum), 18 μg/ml of L-proline). The next day the cells are incubated with Fluo-4 (Fluo-4 2 μM, 0.01% by volume of Pluronic F127, Molecular Probes in HBSS (Hank's buffered saline solution), Gibco Invitrogen GmbH, Karlsruhe, Germany) for 30 minutes at 37° C. Subsequently, the plates are washed three times with HBSS buffer and after further incubation for 15 minutes at RT used for Ca^2+ measurement in a FLIPR assay. The Ca^2+-dependent fluorescence is measured before and after the addition of the substances to be tested (λex wavelength=488 nm, λem=540 nm). Quantification is carried out by measuring the highest fluorescence intensity (FC, fluorescence counts) over time.
The FLIPR protocol consists of 2 substance additions. First the compounds to be tested (10 μM) are pipetted onto the cells and the Ca^2+ influx is compared with the control (capsaicin 10 μM) (% activation based on the Ca^2+ signal after the addition of 10 μM of capsaicin). […]
Desensitising agonists and antagonists led to suppression of the Ca^2+ influx. The % inhibition is calculated compared to the maximum achievable inhibition with 10 μM of capsaicin.
Starting from the percentage displacement caused by different concentrations of the compounds to be tested of general formula I, IC50 inhibitory concentrations which cause a 50-per cent displacement of capsaicin were calculated. Ki values for the test substances were obtained by conversion by means of the Cheng-Prusoff equation (Cheng, Prusoff; Biochem. Pharmacol. 22, 3099-3108, 1973).
NADA=N-arachidonoyl dopamine

T1 sequence (O35433 whole entry): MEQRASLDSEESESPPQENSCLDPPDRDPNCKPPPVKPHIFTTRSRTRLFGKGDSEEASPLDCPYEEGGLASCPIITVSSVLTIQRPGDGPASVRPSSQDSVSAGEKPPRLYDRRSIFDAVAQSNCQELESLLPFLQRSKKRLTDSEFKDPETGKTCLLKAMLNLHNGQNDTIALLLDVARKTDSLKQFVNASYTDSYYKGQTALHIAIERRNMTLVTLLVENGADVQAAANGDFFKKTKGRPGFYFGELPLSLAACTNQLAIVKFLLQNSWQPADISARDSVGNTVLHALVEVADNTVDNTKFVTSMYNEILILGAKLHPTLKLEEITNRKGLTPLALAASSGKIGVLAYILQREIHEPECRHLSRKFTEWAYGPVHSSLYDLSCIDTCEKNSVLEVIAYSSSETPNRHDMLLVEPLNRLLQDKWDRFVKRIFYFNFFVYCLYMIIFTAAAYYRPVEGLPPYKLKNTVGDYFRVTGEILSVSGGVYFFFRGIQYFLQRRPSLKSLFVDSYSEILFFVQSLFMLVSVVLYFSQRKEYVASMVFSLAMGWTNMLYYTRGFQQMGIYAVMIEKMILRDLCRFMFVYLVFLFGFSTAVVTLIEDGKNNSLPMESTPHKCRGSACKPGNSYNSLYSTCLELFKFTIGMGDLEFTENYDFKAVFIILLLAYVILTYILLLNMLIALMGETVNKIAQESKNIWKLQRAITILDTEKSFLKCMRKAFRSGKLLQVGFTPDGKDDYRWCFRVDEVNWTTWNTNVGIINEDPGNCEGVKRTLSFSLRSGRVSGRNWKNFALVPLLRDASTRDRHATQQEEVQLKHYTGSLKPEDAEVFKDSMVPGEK
T2 sequence (Q8NER1 whole entry): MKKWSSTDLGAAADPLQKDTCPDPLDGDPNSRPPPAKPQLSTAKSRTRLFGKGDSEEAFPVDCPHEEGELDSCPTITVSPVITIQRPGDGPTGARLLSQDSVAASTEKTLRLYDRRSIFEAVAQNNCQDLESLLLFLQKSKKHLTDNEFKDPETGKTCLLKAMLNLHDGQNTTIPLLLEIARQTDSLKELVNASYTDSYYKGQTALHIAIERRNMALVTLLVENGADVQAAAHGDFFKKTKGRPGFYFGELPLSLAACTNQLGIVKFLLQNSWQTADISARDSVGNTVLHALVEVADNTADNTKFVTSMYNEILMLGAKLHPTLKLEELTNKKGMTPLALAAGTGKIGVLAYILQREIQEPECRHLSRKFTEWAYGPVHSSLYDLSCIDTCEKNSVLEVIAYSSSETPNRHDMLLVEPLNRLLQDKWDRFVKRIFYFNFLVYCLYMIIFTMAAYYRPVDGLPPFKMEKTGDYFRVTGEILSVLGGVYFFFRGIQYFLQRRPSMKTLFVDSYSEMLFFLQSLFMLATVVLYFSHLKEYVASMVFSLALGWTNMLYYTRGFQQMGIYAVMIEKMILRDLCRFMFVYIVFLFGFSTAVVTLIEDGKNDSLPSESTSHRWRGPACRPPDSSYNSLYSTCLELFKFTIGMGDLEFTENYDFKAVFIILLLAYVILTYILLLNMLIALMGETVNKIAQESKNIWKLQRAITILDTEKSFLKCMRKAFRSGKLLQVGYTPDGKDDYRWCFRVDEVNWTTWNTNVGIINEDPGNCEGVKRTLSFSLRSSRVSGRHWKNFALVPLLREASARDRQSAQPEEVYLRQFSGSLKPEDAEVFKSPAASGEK

SMILES	Ki [1] [nM]	Ki (hVR1 [2]) [nM]	Ki (human being) [nM] Cap: agonist / partial agonist / no effect (hVR1 [2])	IC50 (human being) hVR1, pH: agonist / partial agonist / no effect (hVR1 [4])	also measured
CC(C(=O)NCc1cc(C(F)(F)F)nn1-c1cccc(Cl)c1)c1ccc2[nH]ccc2c1 (centres unmarked) [Example 31, N-((1-(3-chlorophenyl)-3-(trifluoromethyl)-1H-pyrazol-5-yl)methyl)-2-(1H-indol-5-yl)propanamide]	–	2.4	pAG	pAG	–
CC(C(=O)NCc1cc(C(C)(C)C)nn1-c1cccc(Cl)c1)c1cccc2c1OCCO2 (centres unmarked) [Example 14, N-((3-tert-butyl-1-(3-chlorophenyl)-1H-pyrazol-5-yl)methyl)-2-(2,3-dihydrobenzo[b][1,4]dioxin-5-yl)propanamide]	–	–	–	–	Ki (rat) [nM] Cap: agonist / partial agonist / no effect [1]: AG
Cc1cc2c(C(C)C(=O)NCc3cc(C(F)(F)F)nn3-c3cccc(Cl)c3)cccc2cn1 (centres unmarked) [Example 65, N-((1-(3-chlorophenyl)-3-(trifluoromethyl)-1H-pyrazol-5-yl)methyl)-2-(3-methylisoquinolin-5-yl)propanamide]	–	0.3	–	–	IC50 (hVR1 [3]): 780 nM; inhibition at 10 µM (hVR1 [4]): 23%
CC(C(=O)NCc1cc(C(C)(C)C)nn1-c1cccc(Cl)c1)c1cccc2cnccc12 (centres unmarked) [Example 63, N-((3-tert-butyl-1-(3-chlorophenyl)-1H-pyrazol-5-yl)methyl)-2-(isoquinolin-5-yl)propanamide]	0.5	0.2	–	–	Ki (rat) [nM] Cap: agonist / partial agonist / no effect [1]: pAG; inhibition at 0.6 µM (hVR1 [3]; @ 0.6 μM, read-out: IC50 (human being), 45° C.: inhibition (as a percentage)): 9%; inhibition at 10 µM (hVR1 [4]): 33%
CC(C(=O)NCc1cc(C(F)(F)F)nn1-c1cccc(Cl)c1)c1ccc2[nH]ncc2c1 (centres unmarked) [Example 35, N-((1-(3-chlorophenyl)-3-(trifluoromethyl)-1H-pyrazol-5-yl)methyl)-2-(1H-indazol-5-yl)propanamide]	–	0.3	pAG	pAG	IC50 (human being), 45° C.: agonist / partial agonist / no effect (hVR1 [3]): pAG
CC(C(=O)NCc1cc(C(F)(F)F)nn1-c1cccc(Cl)c1)c1cccc2ccc(O)cc12 (centres unmarked) [Example 58, N-((1-(3-chlorophenyl)-3-(trifluoromethyl)-1H-pyrazol-5-yl)methyl)-2-(7-hydroxynaphthalen-1-yl)propanamide]	7.6	0.7	–	–	inhibition at 2.5 µM (hVR1 [3]; @ 2.5 μM, read-out: IC50 (human being), 45° C.: inhibition (as a percentage)): 41%; IC50 (hVR1 [4]): 4930 nM
CC(C(=O)NCc1cc(C(C)(C)C)nn1-c1cccc(Cl)c1)c1ccc2c(c1)OCCCO2 (centres unmarked) [Example 15, N-((3-tert-butyl-1-(3-chlorophenyl)-1H-pyrazol-5-yl)methyl)-2-(3,4-dihydro-2H-benzo[b][1,4]dioxepin-7-yl)propanamide]	–	25	pAG	pAG	Ki (rat) [nM] Cap: agonist / partial agonist / no effect [1]: AG; IC50 (human being), 45° C.: agonist / partial agonist / no effect (hVR1 [3]): pAG; IC50 (hVR1 [4]): 412 nM

Now from value to compound, other results behind:

Ki [1] [nM]	Ki (hVR1 [2]) [nM]	Ki (human being) [nM] Cap: agonist / partial agonist / no effect (hVR1 [2])	IC50 (human being) hVR1, pH: agonist / partial agonist / no effect (hVR1 [4])	SMILES	also measured
34.2	35.4	–	–	CC(C(=O)NCc1cc(C(C)(C)C)nn1-c1cccc(Cl)c1)c1ccc2nccnc2c1 (centres unmarked) [Example 77, N-((3-tert-butyl-1-(3-chlorophenyl)-1H-pyrazol-5-yl)methyl)-2-(quinoxalin-6-yl)propanamide]	inhibition at 10 µM (hVR1 [3]; @ 10 μM, read-out: IC50 (human being), 45° C.: inhibition (as a percentage)): -17%; inhibition at 10 µM (hVR1 [4]): 23%
181	51.6	–	–	O=C(NCc1cc(C(F)(F)F)nn1-c1cccc(Cl)c1)Nc1ccc2c(c1)OCCO2 [Example 84, 1-((1-(3-chlorophenyl)-3-(trifluoromethyl)-1H-pyrazol-5-yl)methyl)-3-(2,3-dihydrobenzo[b][1,4]dioxin-6-yl)urea]	IC50 (hVR1 [3]): 235 nM
–	70.7	–	–	CC(C)(C)c1cc(CNC(=O)Nc2cnc3ccccc3c2)n(-c2cccc(Cl)c2)n1 [Example 113, 1-((3-tert-butyl-1-(3-chlorophenyl)-1H-pyrazol-5-yl)methyl)-3-(quinolin-3-yl)urea]	Ki (hVR1 [5]): 33.3 nM
–	–	AG	AG	CC(C(=O)NCc1cc(C(C)(C)C)nn1-c1cccc(Cl)c1)c1cccc2ncccc12 (centres unmarked) [Example 70, N-((3-tert-butyl-1-(3-chlorophenyl)-1H-pyrazol-5-yl)methyl)-2-(quinolin-5-yl)propanamide]	IC50 (human being), 45° C.: agonist / partial agonist / no effect (hVR1 [3]): AG
–	7.3	pAG	pAG	O=C(NCc1cc(C(F)(F)F)nn1-c1cccc(Cl)c1)Nc1ccc2ncsc2c1 [Example 96, 1-(benzo[d]thiazol-6-yl)-3-((1-(3-chlorophenyl)-3-(trifluoromethyl)-1H-pyrazol-5-yl)methyl)urea]	–
